In publication PMC6598759, “In vitro genotoxicity of nitroimidazoles as a tool in the search of new trypanocidal agents” (Memórias do Instituto Oswaldo Cruz, 2019):
“And” between values parts separate entries of the source, which are not always exact repeats. Equal entries are not always repeated.

Columns and labels:
Chagas disease = conditions: cited from earlier work
[1] = system: bloodstream trypomastigotes form Y strain of T. cruzi; experiment: In vitro trypanocidal assay; type: cell-based; conditions: Trypanosoma cruzi, read-out: IC50/24 h (concentration that produces 50% lysis of the parasites), trypomastigote forms, 37 °C
Protocol: In vitro trypanocidal assay - To accomplishment of the experiments were used bloodstream trypomastigotes form Y strain of T. cruzi, obtained at the peak of the parasitemia (7th day after infection) of infected Swiss albino mice.[34] The trypomastigotes underwent a differential centrifugation process for the separation of erythrocytes, leukocytes and concentration of the parasites in the plasma, and the purified parasites were resuspended in RPMI medium and cell concentration was determined by counting in the Neubauer chamber. Stock solution of each compound was prepared in dimethyl sulfoxide (DMSO), and the assays were performed in Dulbecco’s modified Eagle medium in 96-well plates. In the first well was placed twice the highest desired concentration of each compound, in a final volume of 200 μL, in the following wells were added 100 μL of medium supplemented with 10% foetal bovine serum (FBS) and 2% L-glutamine. Subsequently, 100 μL of parasite suspension (10^6 trypomastigotes) were added, resulting in a final concentration of 5 x 10^6 parasites/mL, incubated for 24 h at 37 °C under a 5% CO2 atmosphere and quantified in Neubauer’s chamber by light microscopy. […] At least four independent experiments were performed and the mean and standard deviation were calculated. Benznidazole (1) was used as a reference drug. The experiments were performed in accordance with the guidelines established by the Oswaldo Cruz Foundation Committee of Ethics for the Use of Animals (L 038/2018).

[2] = system: whole human blood cells (WHBC); experiment: In vitro alkaline comet assay (CA) in whole human blood cells; type: cell-based
Protocol: Methyl methane-sulfonate (MMS) (160 μM) (Sigma-Aldrich) was used as a positive control. […] Slides were prepared, lysed (pH 10; 4-5 °C) and processed as described earlier,[32] using a time of alkali denaturation of 20 min and electrophoresis (0.86 V/cm and 300 mA) of 20 min at a pH > 13. […] The DNA damage was expressed as percentage of cells into four classes and as arbitrary units (AU) according to the formula: AU = (0 […] 3), where n = the number of cells analysed in each class. The total DNA damage score in AU (TAU) for 200 cells can range from 0 TAU (200 undamaged cells) to 600 TAU (all cells maximally damaged).

[3] = system: whole human blood cells (WHBC); experiment: In vitro cytokinesis-block micronucleus assay (CBMN) with whole human blood cells; conditions: for MN formation compared to solvent-control: concentration range analysed; for result in the CBMN: overall call; for MNC in 2,000 BNC: positive control
Protocol: In vitro cytokinesis-block micronucleus assay (CBMN) with whole human blood cells (WHBC) - Heparinised WHBC samples were obtained by venipuncture from volunteers as described above. […] WHBC cultures exposed to mitomycin C (MMC) (1.0 µg/mL in water) (Bristol, USA) for 2 h or to N-deacetyl-N-methylcolchicine in water (Demecolcine: Sigma-Aldrich) 0.02 µg/mL for 28 h were used as positive control cultures. After the treatment, the WHBC cultures were centrifuged (900 rpm, 10 min) and washed with 5 mL PBS. […] CytB has cytokinesis-block activity leading to the formation of binucleate cells. […] The fixed cell suspension was dropped on a clean glass slide and the slide was air-dried on a heating plate (60 °C). Air-dried slides were stained with 60 µg/mL acridine orange in Sörensen buffer (0.03 M KH2PO4, 0.03 M Na2HPO4) for 3s, then they were embedded in distilled water and covered with a coverslip. MN showing bright green fluorescence were analysed using a fluorescence microscope at 400 X magnification. MN were scored in 2,000 binucleated cells (BNC) for culture and the number of the micronucleate cells (MNC) in 2,000 BNC was determined. Cytotoxicity was measured using the cytokinesis-block proliferation index (CBPI) and the replication index (RI) which were calculated from 500 cells. The CBPI indicates the average number of nuclei per cell, and may be used to calculate cell proliferation. The RI indicates the relative number of cell cycles per cell during the period of exposure to cytoB in treated cultures compared to control cultures and can be used to calculate the % cytostasis. CBPI was calculated according to the formula: CBPI = [(No. mononucleate cells) + (2 x No. binucleate cells) + (3 x No. multinucleate cells)] / N, where N indicates the total number of cells scored. RI (%) was calculated according to the formula:
RI %=((No. binucleate cells) + (2 x No. multinucleate cells)) ÷ (Total number of cells)T/((No. binucleate cells) + (2 x No. multinucleate cells)) ÷ (Total number of cells)C x 100
where T indicates treated cultures and C control cultures
Cytotoxicity was evidenced in the occurrence of reduction in CBPI or RI of cultures treated by test substances when compared to control cultures. The measurement of cytotoxicity was used to select the concentrations of the test substance to be analysed for the presence of MN. […] However, it was adopted in this work as the maximum concentration in CBMN one that induced a proliferation inhibition not exceeding about 50% established by ICH S2 (R1) for lymphocyte cultures.
The chi-square test for trend was performed to analyse if the increase of MNC was concentration-related.[30]

[4] = system: whole human blood cells (WHBC); experiment: Cytotoxicity assay (FDA/EtBr) in whole human blood cells; conditions: for percentage decrease in cell viability: 2 h, 37 °C; for lethality variation range: 2 h at 37 °C, compared to solvent-control
Protocol: In vitro treatment and cytotoxicity assay in whole human blood cells (WHBC) - Heparinised WHBC was obtained by venipuncture from healthy young non-smoking volunteers with no known recent exposures to genotoxic chemicals or radiation immediately before the assays. […] The cytotoxicity assay aims to establish the degree of cell viability after treatment with nitroimidazoles to define the ranges concentrations to be tested in the in vitro CA. Cell viability was determined at the end of the treatment using the fluorescein diacetate (FDA)/ethidium bromide (EtBr)-assay, in which viable cells are labelled in green, while dead ones display orange-stained nuclei. WHBC (50 μL) was mixed with an equal volume of the freshly prepared staining solution consisting of 30 μg/mL FDA plus 8 μg/mL EtBr in phosphate-buffered saline (PBS). Samples (50 μL) were spread on a microscope slide and covered with a coverslip and observed using a fluorescence microscope. Two hundred cells were analysed for each treatment.[32] The research project involving the use of human blood samples was approved by the Committee on Ethics in Research with Human Beings - CEP Fiocruz/IOC (CAAE: 41684815.3.0000.5248) under the consolidated opinion of CEP No. 1066061.

Salmonella typhimurium = conditions: cited from earlier work
[5] = 10,000 μM, relative to solvent-control

SMILES: O=C(Cn1ccnc1[N+](=O)[O-])NCc1ccccc1 [Benznidazole, benznidazole]
- serological cure (Chagas disease; adults with late chronic infection): 5-20%
- digestive intolerance (Chagas disease; adverse event): 5-15%
- general symptoms such as anorexia, asthenia, headache, and sleep disturbances (Chagas disease; adverse event): 40%
- skin rash (Chagas disease; adverse event): 29-50%
- discontinuation of treatment (Chagas disease; due to adverse events): 9-29%
- IC50 [1]: 8.8 ± 1.1 µM

SMILES: Cn1cnc([N+](=O)[O-])c1Nc1nnc(C(F)(F)F)[nH]1 [Compound 5]
- result in the in vitro CA [2]: positive
- concentrations at which a significant (p < 0.05) genotoxic effect was observed ([2]; human, 2 h): > 610 µM
- IC50 [1]: > 500 µM
- CBPI ([3]; 150 µM, 4 h): 1.310
- NMNC/2000 binucleated cells ([3]; 150 µM, 4 h): 20
- RI (%) ([3]; 150 µM, 4 h): 151%
- CBPI ([3]; 640 µM, 4 h): 1.228
- NMNC/2000 binucleated cells ([3]; 640 µM, 4 h): 8
- RI (%) ([3]; 640 µM, 4 h): 111%
- CBPI ([3]; 1,600 µM, 4 h): 1.192
- NMNC/2000 binucleated cells ([3]; 1,600 µM, 4 h): 20
- RI (%) ([3]; 1,600 µM, 4 h): 95%
- CBPI ([3]; 4,000 µM, 4 h): 1.340
- NMNC/2000 binucleated cells ([3]; 4,000 µM, 4 h): 24
- RI (%) ([3]; 4,000 µM, 4 h): 167%
- CBPI ([3]; 10,000 µM, 4 h): 1.152
- NMNC/2000 binucleated cells ([3]; 10,000 µM, 4 h): 36
- RI (%) ([3]; 10,000 µM, 4 h): 78%
- reduction of CBPI [3, 5]: 36%
- reduction of RI [3, 5]: 22%
- MN formation compared to solvent-control ([3]; 4 h): did not induce a significant increase in MN formation
- result in the CBMN [3]: negative
- percentage decrease in cell viability ([4]; 149 µM): 0%
- percentage decrease in cell viability ([4]; 238 µM): 0%
- percentage decrease in cell viability ([4]; 382 µM): 0%
- percentage decrease in cell viability ([4]; 610 µM): 0%
- percentage decrease in cell viability ([4]; 1,562 µM): 0%
- percentage decrease in cell viability ([4]; 2,500 µM): 0%
- percentage decrease in cell viability ([4]; 4,000 µM): 2.0%
- percentage decrease in cell viability ([4]; 6,400 µM): 1.0%
- percentage decrease in cell viability ([4]; 10,000 µM): 2.0%
- lethality variation range ([4]; 149-10,000 µM): 1-4%

SMILES: Cn1cnc([N+](=O)[O-])c1-n1cccn1 [Compound 6]
- result in the in vitro CA [2]: positive
- concentration with significant (p < 0.05) DNA damage ([2]; human, 2 h): 6,400 µM
- cells with class 1 DNA damage ([2]; human, 2 h, 6400 µM): 10.5%
- IC50 [1]: > 500 µM
- concentration with cytotoxic activity (Salmonella typhimurium; TA98): 50 µg/mL
- concentration with mutagenicity in TA100 (Salmonella typhimurium; TA100, absence and presence of S9 mixture, highest tested concentration): 50 µg/mL
- concentration range with cytotoxic activity (Salmonella typhimurium; TA100 and TA1535 strains): 1.0 to 50 µg/mL
- CBPI ([3]; 150 µM, 4 h): 1.184
- NMNC/2000 binucleated cells ([3]; 150 µM, 4 h): 32
- RI (%) ([3]; 150 µM, 4 h): 148%
- CBPI ([3]; 640 µM, 4 h): 1.204
- NMNC/2000 binucleated cells ([3]; 640 µM, 4 h): 12
- RI (%) ([3]; 640 µM, 4 h): 132%
- CBPI ([3]; 1,600 µM, 4 h): 1.134
- NMNC/2000 binucleated cells ([3]; 1,600 µM, 4 h): 16
- RI (%) ([3]; 1,600 µM, 4 h): 114%
- CBPI ([3]; 4,000 µM, 4 h): 1.068
- NMNC/2000 binucleated cells ([3]; 4,000 µM, 4 h): 12
- RI (%) ([3]; 4,000 µM, 4 h): 56%
- CBPI ([3]; 10,000 µM, 4 h): 1.036
- RI (%) ([3]; 10,000 µM, 4 h): 24%
- maximum concentration used in MN analysis (inducing in the maximum 50% reduction of CBPI or RI) ([3]; 4 h, relative to solvent-control): 4,000 μM
- MN formation compared to solvent-control ([3]; 4 h): did not induce a significant increase in MN formation
- result in the CBMN [3]: negative
- percentage decrease in cell viability ([4]; 149 µM): 0%
- percentage decrease in cell viability ([4]; 238 µM): 4.0%
- percentage decrease in cell viability ([4]; 382 µM): 0%
- percentage decrease in cell viability ([4]; 610 µM): 0%
- percentage decrease in cell viability ([4]; 1,562 µM): 0%
- percentage decrease in cell viability ([4]; 2,500 µM): 6%
- percentage decrease in cell viability ([4]; 4,000 µM): 0%
- percentage decrease in cell viability ([4]; 6,400 µM): 0%
- lethality variation range ([4]; 149-6,400 µM): 1-4%

SMILES: CN[C@H]1CCc2cc(OC)c(OC)c(OC)c2-c2ccc(OC)c(=O)cc21 [Demecolcine, N-deacetyl-N-methylcolchicine, reference compound]
- MNC in 2,000 BNC ([3]; 0.02 μg/mL, 28 h): 37 and 42 and 30

SMILES: CO[C@@]12[C@H](COC(N)=O)C3=C(C(=O)C(C)=C(N)C3=O)N1C[C@@H]1N[C@@H]12 [MMC, mitomycin C, reference compound]
- MNC in 2,000 BNC ([3]; 1.0 μg/mL, 2 h): 38 and 56 and 40

SMILES: COS(C)(=O)=O [MMS, Methyl methane-sulfonate, reference compound]
- cells with class 3 DNA damage ([2]; 160 µM): 87.7%
- TAU mean value (total DNA damage score) ([2]; 160 μM, positive control, p < 0.001 vs control): 554.2 ± 9.9 TAU

SMILES: CC1CS(=O)(=O)CCN1/N=C/c1ccc([N+](=O)[O-])o1 (centres unmarked) [Nfx, nifurtimox]
- discontinuation of the treatment (Chagas disease; adults with chronic infection): 14-75%
- frequency of adverse effects (Chagas disease; adults with chronic infection): 43.0-97.5%
